{
  "source": "patent US7723320B2",
  "about": "“Use of estrogen compounds to increase libido in women” (Pantarhei Bioscience B.V., priority 2001, dated 2010)",
  "key": {"[1]": {"conditions": "tritium labeled, intravenous, two adult women; cited from earlier work"}, "[2]": {"biological_target": "T1, rat uterine cytosol estrogen receptor (Rattus norvegicus, UniProt P06211)", "T1 construct": "rat uterine cytosol estrogen receptor; host or cells: rat uterus (cytosol / nuclear fraction)", "T1 sequence (P06211 1-600)": "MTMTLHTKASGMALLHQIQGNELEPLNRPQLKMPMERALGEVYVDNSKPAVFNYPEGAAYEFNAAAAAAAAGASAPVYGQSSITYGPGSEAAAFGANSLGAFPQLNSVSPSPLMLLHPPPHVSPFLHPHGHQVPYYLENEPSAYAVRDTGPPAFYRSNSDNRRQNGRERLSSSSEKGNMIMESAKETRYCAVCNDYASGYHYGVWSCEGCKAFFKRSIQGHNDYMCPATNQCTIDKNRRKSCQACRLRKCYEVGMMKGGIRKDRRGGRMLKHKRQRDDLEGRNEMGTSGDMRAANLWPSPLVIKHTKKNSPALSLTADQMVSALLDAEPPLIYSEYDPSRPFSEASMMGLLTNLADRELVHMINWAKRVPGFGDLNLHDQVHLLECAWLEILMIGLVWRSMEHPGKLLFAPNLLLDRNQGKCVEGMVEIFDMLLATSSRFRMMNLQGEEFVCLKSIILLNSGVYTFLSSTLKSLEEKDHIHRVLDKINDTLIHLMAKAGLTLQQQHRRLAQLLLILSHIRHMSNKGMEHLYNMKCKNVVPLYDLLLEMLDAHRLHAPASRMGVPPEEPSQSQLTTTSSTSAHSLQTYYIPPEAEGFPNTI", "conditions": "cited from earlier work"}, "immature rat uterus": {"tested_on": "immature rat uterus", "conditions": "subcutaneously administered, Holinka et al., cited from earlier work"}, "[3]": {"biological_target": "T2, human sex Hormone Binding Globulin (SHBG) (Homo sapiens, UniProt P04278)", "T2 construct": "made in house; host or cells: transgenic mouse (purified from serum)", "T2 sequence (P04278 30-402)": "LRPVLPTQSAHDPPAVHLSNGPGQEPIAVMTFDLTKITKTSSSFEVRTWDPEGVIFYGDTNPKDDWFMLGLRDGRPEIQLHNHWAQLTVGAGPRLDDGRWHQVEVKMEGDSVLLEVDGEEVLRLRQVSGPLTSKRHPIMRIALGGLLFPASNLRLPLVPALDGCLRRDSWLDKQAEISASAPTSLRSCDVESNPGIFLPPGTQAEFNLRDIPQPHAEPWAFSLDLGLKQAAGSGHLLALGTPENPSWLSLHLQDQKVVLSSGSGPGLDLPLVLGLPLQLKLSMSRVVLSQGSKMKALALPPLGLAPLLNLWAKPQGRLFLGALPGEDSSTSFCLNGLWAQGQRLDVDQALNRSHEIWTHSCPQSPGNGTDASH", "assay": "Competitive steroid-binding assay, SHBG", "conditions": "[3H]DHT or [3H]estradiol as labeled ligands", "protocol": "Human SHBG was treated for 30 min at room temperature with a dextran-coated charcoal (DCC) suspension in phosphate buffered saline (PBS) to remove any steroid ligand. After centrifugation (2,000×g for 10 min) to sediment the DCC, the supernatant containing the human SHBG was diluted in PBS to a concentration of 1 nM based on its steroid binding capacity.\nThe average amounts of [^3H]labeled ligands bound to SHBG at each concentration of competitor (B) were expressed as a percentage of the average amounts of [^3H]labeled ligands bound to SHBG in the absence of competitor (B0), and were plotted against the concentration of competitor in each assay tube."}, "[4]": {"biological_target": "T3, estrogen receptor in the human endometrium (Homo sapiens, UniProt P03372)", "T3 construct": "estrogen receptors in the human endometrium; host or cells: human endometrium (nuclei)", "T3 sequence (P03372 1-595)": "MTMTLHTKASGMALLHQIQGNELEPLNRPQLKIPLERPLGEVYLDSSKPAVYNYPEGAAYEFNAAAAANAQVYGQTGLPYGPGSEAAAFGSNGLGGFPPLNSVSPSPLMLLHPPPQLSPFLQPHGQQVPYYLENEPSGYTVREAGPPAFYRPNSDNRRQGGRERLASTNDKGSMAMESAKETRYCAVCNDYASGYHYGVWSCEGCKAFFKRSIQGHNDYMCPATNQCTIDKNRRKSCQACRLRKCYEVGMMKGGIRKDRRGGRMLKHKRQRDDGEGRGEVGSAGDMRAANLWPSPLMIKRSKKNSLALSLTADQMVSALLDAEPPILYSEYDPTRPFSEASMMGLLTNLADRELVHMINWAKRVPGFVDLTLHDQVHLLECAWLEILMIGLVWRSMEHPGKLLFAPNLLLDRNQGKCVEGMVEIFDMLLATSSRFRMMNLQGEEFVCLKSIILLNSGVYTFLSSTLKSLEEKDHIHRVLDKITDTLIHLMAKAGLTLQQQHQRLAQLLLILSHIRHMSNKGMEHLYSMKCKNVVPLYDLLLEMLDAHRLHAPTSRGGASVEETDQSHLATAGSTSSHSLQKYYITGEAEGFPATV", "conditions": "Tseng et al., 1976; cited from earlier work"}, "[5]": {"tested_on": "estrogen receptors in the human endometrium", "conditions": "Tseng et al., 1978; cited from earlier work"}, "postmenopausal women": {"tested_on": "postmenopausal women", "assay": "Clinical study of libido in postmenopausal women", "assay_type": "in vivo, human", "conditions": "4 months", "protocol": "In a baseline cycle, coitus frequency and sexual satisfaction (female orgasm) are recorded.\nEach participant receives blinded medication in 2 differently labeled bottles, filled with tablets. One bottle comprises tablets that contain 2 mg estetrol, whilst the other bottle contains identical placebo tablets. The participants are allowed to choose from which bottle to take a tablet, but are instructed not to use more than 1 tablet per 24 hours and not more than 2 tablets a week. The total duration of the study is 4 months."}, "[6]": {"tested_on": "human breast cancer cells (MCF-7)", "conditions": "MCF-7, long term tissue culture; cited from earlier work"}},
  "note": "Like-named read-outs stand apart in the source and are kept apart here.",
  "data": [
    {"smiles": "C[C@]12CC[C@@H]3c4ccc(O)cc4CC[C@H]3[C@@H]1[C@@H](O)[C@@H](O)[C@@H]2O", "note": "[E4, 1,3,5(10)-estratrien-3,15α,16α,17β-tetrol]", "values": [
      {"measurement": "excretion", "setting": "[1]", "value": "rapidly and completely excreted in urine as the glucosiduronate"},
      {"measurement": "metabolism", "setting": "[1]", "value": "virtually no metabolism except for conjugation"},
      {"measurement": "relative binding affinity, of 17β-estradiol (100%)", "setting": "[2]", "value": 0.5, "unit": "%"},
      {"measurement": "uterotrophic activity", "setting": "immature rat uterus; 1979", "value": "very weak uterotrophic activity"},
      {"measurement": "uterotrophic activity", "setting": "immature rat uterus; 1980", "value": "very weak uterotrophic activity"},
      {"measurement": "relative binding affinity for human SHBG", "setting": "[3]", "value": "does not bind at all"},
      {"measurement": "relative binding constant compared to 17β-estradiol (100%)", "setting": "[4]", "value": 6.25, "unit": "%"},
      {"measurement": "relative binding to estrogen receptors, of 17β-estradiol", "setting": "[5]", "value": 1.5, "unit": "%"},
      {"measurement": "use of estetrol containing tablets versus placebo tablets", "setting": "postmenopausal women; blinded free choice between two bottles", "value": "significantly more"},
      {"measurement": "libido and sexual enjoyment in comparison to baseline", "setting": "postmenopausal women; oral 2 mg tablets on demand, postmenopausal women", "value": "improved libido and sexual enjoyment"},
      {"measurement": "undesirable side-effects", "setting": "postmenopausal women; oral 2 mg tablets, max 2 tablets a week", "value": "no undesirable side-effects are reported"},
      {"measurement": "agonistic potency relative to 17β-estradiol in in vitro cell proliferation", "setting": "[6]", "value": 2, "unit": "%"}
    ]}
  ]
}
